Results from article PMC8596838, “Xylose‐Configured Cyclophellitols as Selective Inhibitors for Glucocerebrosidase” (Chembiochem, 2021).

Molecular target: GBA (Danio rerio, UniProt E7EZM1)
Assay: In vivo inhibition in zebrafish larvae, read out by cABPP with ABP 10, GBA
Set-up: species or system zebrafish (Danio rerio)
Details: larvae exposed to 5 dpf, inhibitor in the medium, cABPP quantification
Source text: We further investigated the affinity of 1 and 2 towards β‐D‐glucosidases in living animals using zebrafish (Danio rerio) embryos, which express both GBA and GBA2. Following exposure for 5 days, fish larvae were sacrificed and lysed, and cABPP with ABP 10 was used to detect residual active β‐D‐glucosidase molecules in the lysates and for IC50 determination. […] Aziridine compound 2 is also selective against GBA over GBA2, albeit with a narrower selectivity window (Figure 6A–C). […]
Figure 6 In vivo inhibitory effect of β‐D‐xylo‐configured compounds on β‐glucosidases in zebrafish (Danio rerio) larvae. […] Fluorescently labeled proteins were visualized after SDS‐PAGE, only GBA and GBA2 were assessed in zebrafish larvae model. (B) Apparent IC50 values towards β‐glucosidases (GBA and GBA2) were determined by the fluorescence quantification based on cABPP results. […] (D) GlcSph levels in zebrafish larvae were determined as described in experiment section, n=2 replicates.
ABP labeling procedure: Glycosidases were labeled with excess fluorescent ABPs at optimum conditions. […] ABP‐emitted fluorescence was quantified using ImageQuant software (GE Healthcare, Chicago, IL, USA) and curve‐fitted using Prism 8.0 (GraphPad Software). After fluorescence scanning, SDS‐PAGE gels were stained for total protein with Coomassie G250 and scanned on a ChemiDoc MP imager (Bio‐Rad, Hercules, CA, USA).[25] […]

GBA, sequence (E7EZM1 entry or part of it): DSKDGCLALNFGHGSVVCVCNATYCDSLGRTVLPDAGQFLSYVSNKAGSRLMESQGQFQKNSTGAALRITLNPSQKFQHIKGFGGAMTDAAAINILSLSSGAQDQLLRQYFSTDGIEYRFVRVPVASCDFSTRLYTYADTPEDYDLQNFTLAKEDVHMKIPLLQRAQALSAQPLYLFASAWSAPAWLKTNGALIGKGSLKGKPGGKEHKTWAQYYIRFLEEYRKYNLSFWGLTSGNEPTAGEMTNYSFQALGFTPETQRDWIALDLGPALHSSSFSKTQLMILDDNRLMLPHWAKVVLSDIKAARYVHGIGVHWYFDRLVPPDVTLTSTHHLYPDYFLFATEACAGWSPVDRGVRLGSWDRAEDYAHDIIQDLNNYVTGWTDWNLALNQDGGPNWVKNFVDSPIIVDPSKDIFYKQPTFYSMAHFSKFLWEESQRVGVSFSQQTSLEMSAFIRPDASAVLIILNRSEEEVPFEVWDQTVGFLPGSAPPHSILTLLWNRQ

| SMILES | IC50 [µM] |
| --- | --- |
| O[C@@H]1[C@@H](O)[C@H](O)C[C@H]2O[C@@H]12 [compound 1, xylo‐cyclophellitol] | 3.01 |
| O[C@@H]1[C@@H](O)[C@H](O)C[C@H]2N[C@@H]12 [compound 2, β‐D‐xylo‐Cyclophellitol aziridine] | 6.99 |
